Assay: Light resistance of PMMA polymer film (residual amount after metal halide lamp irradiation)
Assay type: physicochemical
Details: 0.2 mass % compound in PMMA film, 50-μm thick; metal halide lamp (about 290 nm or less cut), 90 mW/cm^2, 63° C., humidity 50%, irradiation for 600 hours; absorbance at maximum absorption wavelength
Protocol: A binder solution was prepared by dissolving 22 mass % of a PMMA resin (“DIANAL BR-80”, trade name, produced by Mitsubishi Rayon Co., Ltd.) in methylene chloride. […] The coating solution was applied on glass as a base material by means of a 200 μm blade and dried at 100° C. for 10 minutes to form a 50-μm thick coating, whereby a film was produced. […] The residual amount was calculated according to the following formula: Residual amount (%)=100×(absorbance after irradiation)/(absorbance before irradiation)
Incidentally, the absorbance is a value measured at the maximum absorption wavelength of each compound.

Residual Amount (%) | Compound
44 | CCCCCCOc1ccc(-c2nc(-c3ccccc3)nc(-c3ccccc3)n2)c(O)c1 [Comparative Compound A]
14 | CCCCCCCCOc1ccc(-c2nc(-c3ccc(C)cc3C)nc(-c3ccc(C)cc3C)n2)c(O)c1 [Comparative Compound B]

— patent US8957140B2, “Triazine derivative, ultraviolet absorber, and resin composition” (FUJIFILM Corporation, priority 2009, dated 2015)
